# Measurements: patent US20110166123A1, “NOVEL COMPOSITIONS AND METHODS OF USE” (priority 2008, published 2011)
# pEC50: −log10 of the molar value. Several values for one entry are separate records, joined by “and”; a condition that tells them apart may be missing. Identical values can stand only once. Marks after values point to notes of the source that are not given here.
# Tests used:
# [1] = Microsomal incubation (Method 1), rat; format: in vitro ADME; conditions: rat liver microsomes; compound 10 μM, 1 mg protein/mL, NADPH 1 mM, 60 minutes at 37° C.
# Description: (§1) Compound (10 μM) was incubated with rat, dog, cynomolgus monkey, and human liver microsomes (1 mg protein/mL) in a final volume of 1 mL in 2-mL Eppendorf tubes. The mixture containing enzymes, potassium phosphate buffer (100 mM, pH 7.4), and the compound was pre-incubated at 37° C. for 3 min. The reaction was initiated by the addition of NADPH (final concentration of 1 mM) and incubated for 60 minutes at 37° C. The reaction was terminated by the addition of 1 mL of acetonitrile. After centrifugation at 12000 rpm for 3 minutes, the supernatant was subjected to 15 minutes of concentration (N2 flow, 32° C.). The resulting final extract was transferred to clean vials and analyzed by HPLC.
# [2] = Microsomal incubation (Method 1), human; format: in vitro ADME; conditions: human liver microsomes, compound 10 μM, 1 mg protein/mL, NADPH 1 mM, 60 minutes at 37° C.
# Description: as §1
# [3] = Hepatocytes incubation (Method 1), rat; format: in vitro ADME; conditions: compound 10 μM, 37° C., 2 hrs
# Description: (§2) Cryopreserved hepatocytes were thawed in a water bath at 37° C. and transferred to a 50-mL tube containing 45 mL of pre-warmed incubation medium (In VitroGRO HT medium). The tube was inverted 3 times to ensure resuspension of hepatocytes and centrifuged at 50 g at room temperature for 5 minutes. The supernatant was decanted without disturbing the pellet. The pellet of hepatocytes was resuspended in 1 mL of William's E medium and the viable cell counting was determined by the tryptan blue exclusion method.
# (§3) The William's E medium was added to the suspension of the hepatocytes pellet to make a final density of 2 million cells/mL. Stock solution of the compound was prepared at the concentration of 1 mM and diluted to 10 μM with William's E medium. The culture plate was incubated at 37° C. under 5% carbon dioxide and 95% air atmosphere for 2 hrs. The metabolic reaction was terminated by transferring the contents of the well into a centrifuge tube containing 1 mL of 0.1% TFAA acetonitrile solution and then vortexing. After centrifugation, the supernatant was subjected to 15 minute of concentration (N2 flow, 32° C.). The resulted final extract was transferred to clean vials for HPLC analysis.
# [4] = Microsomal incubation (Method 1), monkey; format: in vitro ADME; conditions: cynomolgus monkey liver microsomes; compound 10 μM, 1 mg protein/mL, NADPH 1 mM, 60 minutes at 37° C.
# Description: as §1
# [5] = Hepatocytes incubation (Method 1), monkey; format: in vitro ADME; conditions: compound 10 μM, 37° C., 2 hrs
# Description: as §2, §3
# [6] = tested on: human immunodeficiency virus type 1 (HIV-1); test: microbe, parasite or virus in culture; format: cell-based; conditions: Human immunodeficiency virus 1, HeLa, 48 h, HIV-1 luciferase reporter, HeLa cells, 48 hours after infection
# [7] = Hepatocytes incubation (Method 1), human; format: in vitro ADME; conditions: compound 10 μM, 37° C., 2 hrs
# Description: as §2, §3
# [8] = Microsomal incubation (Method 1), dog; format: in vitro ADME; conditions: dog liver microsomes; compound 10 μM, 1 mg protein/mL, NADPH 1 mM, 60 minutes at 37° C.
# Description: as §1
# [9] = Hepatocyte stability (Example 36), rat; conditions: rat hepatocytes 1 million cells/mL, 37° C., 4 hours, LC-MS/MS
# [10] = Hepatocyte stability (Example 36), human; conditions: human hepatocytes 1 million cells/mL, 37° C., 4 hours, LC-MS/MS
# [11] = CYP3A4 activity 3800 (pmol/mg protein)
smiles,measurement,setting,value
"COc1nc2c(cc1Cc1cccc(Cl)c1F)c(=O)c(C(=O)O)cn2[C@H](CO)C(C)C [Example 1A, 6-(3-Chloro-2-fluoro-benzyl)-1-((S)-1-hydroxymethyl-2-methyl-propyl)-7-methoxy-4-oxo-1,4-dihydro-[1,8]naphthyridine-3-carboxylic acid]","% Remaining, Rat, Microsome",[1],38.1%
same,"% Remaining, Human, Microsome",[2]; [11],101% and 96.1%
same,"% Remaining, Human, Microsome",[2]; CYP3A4 activity 7800 (pmol/mg protein),83.5%
same,"% Remaining, Rat, Hepatocyte",[3],66.9%
same,"% Remaining, Monkey, Microsome",[4],66.3%
same,"% Remaining, Monkey, Hepatocyte",[5],72.3%
same,pEC50,[6],> 8.00
same,"% Remaining, Human, Hepatocyte",[7],89.6%
same,"% Remaining, Dog, Microsome",[8],102%
"COc1nc2c(cc1NCc1c(F)cc(F)cc1F)c(=O)c(C(=O)O)cn2[C@H](CO)C(C)C [Example 20AA, (S)-1-(1-hydroxy-3-methylbutan-2-yl)-7-methoxy-4-oxo-6-(2,4,6-trifluorobenzylamino)-1,4-dihydro-1,8-naphthyridine-3-carboxylic acid]",% Remaining (rat),[9],43%
same,% Remaining (human),[10],75%
same,pEC50,[6],> 8.00
"COc1nc2c(cc1NCc1c(F)cc(F)cc1F)c(=O)c(C(=O)O)cn2[C@H](CO)C(C)(C)C [Example 20NN, (S)-1-(1-hydroxy-3,3-dimethylbutan-2-yl)-7-methoxy-4-oxo-6-(2,4,6-trifluorobenzylamino)-1,4-dihydro-1,8-naphthyridine-3-carboxylic acid]",% Remaining (rat),[9],46%
same,% Remaining (human),[10],61%
same,pEC50,[6],> 8.00
"COc1cc2c(cc1OCc1cccc(Cl)c1F)c(=O)c(C(=O)O)cn2[C@H](CO)C(C)(C)C [Example 29A, (S)-6-(3-chloro-2-fluorobenzyloxy)-1-(1-hydroxy-3,3-dimethylbutan-2-yl)-7-methoxy-4-oxo-1,4-dihydroquinoline-3-carboxylic acid]",pEC50,[6],< 7.00
"COc1cc2c(cc1OCc1c(F)cc(F)cc1F)c(=O)c(C(=O)O)cn2[C@H](CO)C(C)(C)C [Example 29B, (S)-1-(1-hydroxy-3,3-dimethylbutan-2-yl)-7-methoxy-4-oxo-6-(2,4,6-trifluorobenzyloxy)-1,4-dihydroquinoline-3-carboxylic acid]",pEC50,[6],7.00 to 8.00
"COc1cc2c(cc1OCc1ccccc1C(F)(F)F)c(=O)c(C(=O)O)cn2[C@H](CO)C(C)(C)C [Example 29C, (S)-1-(1-hydroxy-3,3-dimethylbutan-2-yl)-7-methoxy-4-oxo-6-(2-(trifluoromethyl)benzyloxy)-1,4-dihydroquinoline-3-carboxylic acid]",pEC50,[6],< 7.00
"COc1cc2c(cc1OCc1cc(Cl)ccc1F)c(=O)c(C(=O)O)cn2[C@H](CO)C(C)(C)C [Example 29D, (S)-6-(5-chloro-2-fluorobenzyloxy)-1-(1-hydroxy-3,3-dimethylbutan-2-yl)-7-methoxy-4-oxo-1,4-dihydroquinoline-3-carboxylic acid]",pEC50,[6],< 7.00
"COc1ccc(COc2cc3c(=O)c(C(=O)O)cn([C@H](CO)C(C)(C)C)c3cc2OC)cc1 [Example 29E, (S)-1-(1-hydroxy-3,3-dimethylbutan-2-yl)-7-methoxy-6-(4-methoxybenzyloxy)-4-oxo-1,4-dihydroquinoline-3-carboxylic acid]",pEC50,[6],< 7.00
COc1cc2c(cc1Oc1c(F)cc(F)cc1F)c(=O)c(C(=O)O)cn2[C@H](CO)C(C)(C)C [Example 29F],pEC50,[6],< 7.00
COc1cc2c(cc1Oc1ccc(C(F)(F)F)cc1N)c(=O)c(C(=O)O)cn2[C@H](CO)C(C)(C)C [Example 29G],pEC50,[6],< 7.00
"COc1cc2c(cc1Cc1cccc(Cl)c1F)c(=O)c(C(=O)O)cn2[C@H](CO)C(C)C [Example 30A, reference compound]","% Remaining, Rat, Microsome",[1],6.7 NA %
same,"% Remaining, Human, Microsome",[2]; [11],40.5 (3800)* NA %
same,"% Remaining, Monkey, Microsome",[4],4.1 NA %
same,% Remaining (rat),[9],29%
same,% Remaining (human),[10],54%
same,"% Remaining, Dog, Microsome",[8],83.8 NA %
"Cc1nnc(C(=O)NC(C)(C)c2nc(C(=O)NCc3ccc(F)cc3)c(O)c(=O)n2C)o1 [Raltegravir, raltegravir, reference compound]","% Remaining, Rat, Microsome",[1],105%
same,"% Remaining, Rat, Hepatocyte",[3],43.3%
same,"% Remaining, Monkey, Microsome",[4],94.7%
same,"% Remaining, Monkey, Hepatocyte",[5],20.0%
same,"% Remaining, Human, Hepatocyte",[7],32.4%
same,"% Remaining, Dog, Microsome",[8],91.8%
